This passage reports TGI and GI50 results from PubChem BioAssay (NCI).

Test systems include A549 NSCLC; CCRF-CEM leukemia; HOP-62 NSCLC; K-562 leukemia; NCI-H226 lung; NCI/ADR-RES ovarian; OVCAR-5 ovarian; PC-3 prostate; RPMI-8226 leukemia; RXF 393 renal; SK-MEL-2 melanoma; U251 CNS.
Assay in all cases: growth of human tumour cells (NCI), 48 h

Several values for one entry are separate records, joined by “and”; a condition that tells them apart may be missing. Equal entries are not always repeated.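 Grown in 96-well plates, cells were treated for 48 hours with each compound at five concentrations. Insufficient inhibition: endpoint recorded as highest concentration tested. GI50 marks 50% less growth. TGI is the concentration that stops growth completely.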

`CCCN=C1CC(C)Nc2ccccc2N1` (centres undefined): the TGI with A549 NSCLC, in the assay on CCRF-CEM leukemia, in the assay with HOP-62 NSCLC, with K-562 leukemia, in the assay on NCI-H226 lung and with NCI/ADR-RES ovarian was above 100 µM throughout. Further, the TGI in the assay on OVCAR-5 ovarian, in the assay with PC-3 prostate, with RPMI-8226 leukemia, in the assay with RXF 393 renal, with SK-MEL-2 melanoma and in the assay with U251 CNS was above 100 µM in each case.
Turning to `N#CC1=C(N)OC2=C(CSc3ccccc32)C1c1ccc(Br)cc1` (centres undefined), the TGI with A549 NSCLC was determined as 27.2 µM; with CCRF-CEM leukemia, 6.83 µM; in the assay on HOP-62 NSCLC, 32.7 µM; with K-562 leukemia, 11.3 µM; in the assay with NCI-H226 lung, 27.9 µM; with NCI/ADR-RES ovarian, 7.75 µM. Moreover, the TGI with OVCAR-5 ovarian was found to be 32.7 µM; in the assay with PC-3 prostate, 16.8 µM; in the assay with RPMI-8226 leukemia, 5.52 µM; with RXF 393 renal, 16.3 µM; in the assay with SK-MEL-2 melanoma it was 23 µM; with U251 CNS it was 19.9 µM.
For `c1cc(-c2cnc(-c3ccc4c(c3)CCCO4)o2)ccn1`, the TGI in the assay on A549 NSCLC stood at 51.5 µM; in the assay on CCRF-CEM leukemia, 29.7 µM; in the assay with HOP-62 NSCLC, 30.1 µM; in the assay on K-562 leukemia, 22.8 µM; in the assay with NCI-H226 lung, 31.7 µM; in the assay with NCI/ADR-RES ovarian, 41.3 µM. For the same compound, the TGI in the assay on OVCAR-5 ovarian worked out at 44.5 µM; in the assay on PC-3 prostate it was 24.4 µM; in the assay on RPMI-8226 leukemia, 23.6 µM; with RXF 393 renal, 43.7 µM; with SK-MEL-2 melanoma, 24.8 µM; with U251 CNS, 78.5 µM.
As for `O=c1c2ccccc2[nH]c(=S)n1-c1ccc(N=Nc2cccc3c(O)cccc23)cc1`, the TGI with A549 NSCLC, in the assay with CCRF-CEM leukemia, in the assay on HOP-62 NSCLC, in the assay on K-562 leukemia, with NCI-H226 lung and in the assay with NCI/ADR-RES ovarian was above 100 µM in each case. Moreover, the TGI with OVCAR-5 ovarian, in the assay on PC-3 prostate, in the assay with RPMI-8226 leukemia, with RXF 393 renal, in the assay with SK-MEL-2 melanoma and in the assay on U251 CNS was above 100 µM in each case.
In the case of `CCOC(=O)c1cc2c([N+](=O)[O-])c(NC(C)=O)ccc2s1`, the TGI in the assay on A549 NSCLC is above 100 µM; in the assay with CCRF-CEM leukemia, above 100 µM; in the assay with HOP-62 NSCLC it was above 100 µM; in the assay with K-562 leukemia, above 100 µM; with NCI-H226 lung it was 54.8 µM; in the assay on NCI/ADR-RES ovarian, above 100 µM. In addition, the TGI in the assay with OVCAR-5 ovarian, with PC-3 prostate, with RPMI-8226 leukemia, in the assay with RXF 393 renal, in the assay on SK-MEL-2 melanoma and with U251 CNS was above 100 µM each time.
With `CC(C)(C)OC(=O)NC(C)(C)C(=O)NCCC(=O)O`, the TGI in the assay on A549 NSCLC, in the assay on CCRF-CEM leukemia, in the assay on HOP-62 NSCLC, with K-562 leukemia, in the assay on NCI-H226 lung and with NCI/ADR-RES ovarian was above 100 µM each time. Further, the TGI in the assay with OVCAR-5 ovarian, in the assay with PC-3 prostate, in the assay with RPMI-8226 leukemia, in the assay with RXF 393 renal, in the assay with SK-MEL-2 melanoma and with U251 CNS was above 100 µM in each case.
As for `COc1ccc(Nc2c(C#N)c3n(c4ccccc24)c2ccccc2[n+]3C)cc1OC`, the TGI in the assay with A549 NSCLC was 14.9 µM; with CCRF-CEM leukemia it was above 100 µM; in the assay on HOP-62 NSCLC, 23.6 µM; in the assay on K-562 leukemia it was above 20 µM; in the assay on NCI-H226 lung, 10.4 µM; in the assay on NCI/ADR-RES ovarian it was 17.6 µM. The TGI in the assay with OVCAR-5 ovarian is 10.4 µM; with PC-3 prostate, 8.38 µM; in the assay on RPMI-8226 leukemia, above 25.1 µM; in the assay on RXF 393 renal, 9.46 µM; in the assay with SK-MEL-2 melanoma it was 14.9 µM; with U251 CNS it was 17.9 µM.
As for `COc1ccc2c(c1)c1c(n2CCN2CCOCC2)-c2ccccc2CC1`, the TGI was above 100 µM with A549 NSCLC; 69.5 µM with CCRF-CEM leukemia; above 100 µM with HOP-62 NSCLC; 40.2 µM in the assay on K-562 leukemia; 48.9 µM in the assay with NCI-H226 lung; above 100 µM with NCI/ADR-RES ovarian. The TGI is above 100 µM with OVCAR-5 ovarian; above 100 µM with PC-3 prostate; 64.2 µM with RPMI-8226 leukemia; above 100 µM with RXF 393 renal; 82.5 µM in the assay on SK-MEL-2 melanoma; above 100 µM in the assay with U251 CNS.
For the compound `c1cc2nnc1SCCSCCSc1ccc(nn1)SCCSCCS2`, the TGI in the assay with A549 NSCLC, with CCRF-CEM leukemia, with HOP-62 NSCLC, in the assay on K-562 leukemia, in the assay on NCI-H226 lung and with NCI/ADR-RES ovarian was above 100 µM each time. Further, the TGI in the assay on OVCAR-5 ovarian, with PC-3 prostate, in the assay on RPMI-8226 leukemia, in the assay with RXF 393 renal, in the assay with SK-MEL-2 melanoma and in the assay on U251 CNS was above 100 µM each time.
In the case of `CCCCCCCCCC[C@@H](O)[C@H]1CC[C@H]([C@H]2CC[C@H]([C@H](O)CCCCCCCCCC[C@@H]3CC(CC(C)=O)C(=O)O3)O2)O1` (some centres undefined), the TGI is above 50 µM in the assay with A549 NSCLC; above 50 µM with CCRF-CEM leukemia; above 50 µM in the assay with HOP-62 NSCLC; above 50 µM in the assay on K-562 leukemia; 6.56 µM and > 50 µM with NCI-H226 lung; above 50 µM with OVCAR-5 ovarian. Further, the TGI with PC-3 prostate, in the assay on RPMI-8226 leukemia, with RXF 393 renal, with SK-MEL-2 melanoma and with U251 CNS was above 50 µM each time. The GI50 in the assay with CCRF-CEM leukemia was 1.74 µM; in the assay on K-562 leukemia, 0.884 µM; with NCI-H226 lung it was 1.43 µM; in the assay on NCI/ADR-RES ovarian it was 0.377 µM; in the assay on PC-3 prostate, 5.3 µM; with RPMI-8226 leukemia, 1.39 µM. Moreover, the GI50 is 4.06 µM in the assay on SK-MEL-2 melanoma and 7.12 µM in the assay with U251 CNS.
On to `CC[C@@H]1CC[C@@H]2[C@H](CC[C@]3(C)[C@@H](O)CC[C@@H]23)[C@H]1C(=O)O`, for which the TGI in the assay on A549 NSCLC, with CCRF-CEM leukemia, in the assay on HOP-62 NSCLC, in the assay on K-562 leukemia, in the assay with NCI-H226 lung and in the assay with NCI/ADR-RES ovarian was above 100 µM each time. Also, the TGI in the assay on OVCAR-5 ovarian, in the assay with PC-3 prostate, with RPMI-8226 leukemia, in the assay with RXF 393 renal, with SK-MEL-2 melanoma and in the assay with U251 CNS was above 100 µM each time.
